Values belong to the molecule of their own block, whether it stands above or below them. Active and inactive are the calls of the source. No cut-off for these calls is given here.
Columns and labels:
Histone deacetylase 1 = Histone deacetylase 1 (Homo sapiens, UniProt Q13547); test: Inhibition of recombinant human HDAC1 using Ac-LGK(Ac)-AMC as substrate preincubated for 30 mins followed by substrate addition and measured after 90 mins by fluorescence based assay
[1] = molecular target: T1, Class 1 histone deacetylase (Homo sapiens, UniProt Q13547+O15379+Q92769+Q9BY41); test: Inhibition of Class 1 histone deacetylase in human THP-1 cells assessed as accumulation of Histone H4 acetylation levels at 1 to 10 uM incubated for 3 hrs by western blot analysis; assay type: cell-based; conditions: dose 1-10 µM
Histone deacetylase 7 = molecular target: T2, Histone deacetylase 7 (Homo sapiens, UniProt Q8WUI4)
T2 sequence (Q8WUI4 whole entry): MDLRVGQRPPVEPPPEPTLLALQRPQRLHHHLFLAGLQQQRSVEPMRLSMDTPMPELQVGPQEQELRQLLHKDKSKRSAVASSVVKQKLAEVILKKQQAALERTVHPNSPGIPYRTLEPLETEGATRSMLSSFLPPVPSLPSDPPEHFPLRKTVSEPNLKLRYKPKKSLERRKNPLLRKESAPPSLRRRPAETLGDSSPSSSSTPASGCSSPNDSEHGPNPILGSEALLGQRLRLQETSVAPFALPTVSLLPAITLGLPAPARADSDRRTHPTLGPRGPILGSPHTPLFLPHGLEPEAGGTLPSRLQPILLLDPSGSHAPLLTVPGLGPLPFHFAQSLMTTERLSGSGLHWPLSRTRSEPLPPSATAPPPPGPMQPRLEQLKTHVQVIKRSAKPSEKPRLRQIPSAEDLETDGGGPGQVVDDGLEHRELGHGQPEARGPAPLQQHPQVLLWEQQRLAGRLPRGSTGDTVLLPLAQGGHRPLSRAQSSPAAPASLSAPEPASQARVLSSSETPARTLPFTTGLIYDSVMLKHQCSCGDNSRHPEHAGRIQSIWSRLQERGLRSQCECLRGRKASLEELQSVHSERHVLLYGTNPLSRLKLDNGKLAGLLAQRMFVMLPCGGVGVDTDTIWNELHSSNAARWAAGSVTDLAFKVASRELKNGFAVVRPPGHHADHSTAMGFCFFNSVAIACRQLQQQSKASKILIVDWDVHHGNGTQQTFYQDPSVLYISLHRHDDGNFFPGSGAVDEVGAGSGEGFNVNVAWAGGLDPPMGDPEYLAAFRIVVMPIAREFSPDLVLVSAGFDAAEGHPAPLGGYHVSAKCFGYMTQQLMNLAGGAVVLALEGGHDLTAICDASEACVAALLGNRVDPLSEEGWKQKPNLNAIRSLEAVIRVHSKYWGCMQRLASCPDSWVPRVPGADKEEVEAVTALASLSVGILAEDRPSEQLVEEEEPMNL
Description: Inhibition of recombinant human HDAC7 using Ac-LGK(TFA)-AMC as substrate pre-incubated for 15 mins followed by substrate addition and measured after 60 mins by fluorescence based assay

[2] = Metabolic stability in Sprague-Dawley rat liver microsomes assessed as half life at 5 uM preincubated for 5 mins followed by NADPH addition and measured after 60 mins by LCMS analysis; assay type: ADME, Microsome; conditions: time 65 min
Macrophage [3] = test: Antiinflammatory activity in human monocytes-derived macrophages assessed as inhibition of LPS-induced IL-23 secretion at 30 uM pretreated for 1 hr followed by LPS stimulation and measured after 24 hrs by homogenous time-resolved fluorescence assay; assay type: functional, cell-based; conditions: time 25.0 hrs
Macrophage [4] = test: Antiinflammatory activity in human monocytes-derived macrophages assessed as inhibition of LPS-induced IL-6 secretion at 30 uM pretreated for 1 hr followed by LPS stimulation and measured after 24 hrs by homogenous time-resolved fluorescence assay; assay type: functional, cell-based; conditions: time 25.0 hrs
Histone deacetylase 5 = Histone deacetylase 5 (Homo sapiens, UniProt Q9UQL6); test: Inhibition of recombinant human HDAC5 using Ac-LGK(TFA)-AMC as substrate pre-incubated for 15 mins followed by substrate addition and measured after 60 mins by fluorescence based assay
Histone deacetylase 5, sequence (Q9UQL6 whole entry): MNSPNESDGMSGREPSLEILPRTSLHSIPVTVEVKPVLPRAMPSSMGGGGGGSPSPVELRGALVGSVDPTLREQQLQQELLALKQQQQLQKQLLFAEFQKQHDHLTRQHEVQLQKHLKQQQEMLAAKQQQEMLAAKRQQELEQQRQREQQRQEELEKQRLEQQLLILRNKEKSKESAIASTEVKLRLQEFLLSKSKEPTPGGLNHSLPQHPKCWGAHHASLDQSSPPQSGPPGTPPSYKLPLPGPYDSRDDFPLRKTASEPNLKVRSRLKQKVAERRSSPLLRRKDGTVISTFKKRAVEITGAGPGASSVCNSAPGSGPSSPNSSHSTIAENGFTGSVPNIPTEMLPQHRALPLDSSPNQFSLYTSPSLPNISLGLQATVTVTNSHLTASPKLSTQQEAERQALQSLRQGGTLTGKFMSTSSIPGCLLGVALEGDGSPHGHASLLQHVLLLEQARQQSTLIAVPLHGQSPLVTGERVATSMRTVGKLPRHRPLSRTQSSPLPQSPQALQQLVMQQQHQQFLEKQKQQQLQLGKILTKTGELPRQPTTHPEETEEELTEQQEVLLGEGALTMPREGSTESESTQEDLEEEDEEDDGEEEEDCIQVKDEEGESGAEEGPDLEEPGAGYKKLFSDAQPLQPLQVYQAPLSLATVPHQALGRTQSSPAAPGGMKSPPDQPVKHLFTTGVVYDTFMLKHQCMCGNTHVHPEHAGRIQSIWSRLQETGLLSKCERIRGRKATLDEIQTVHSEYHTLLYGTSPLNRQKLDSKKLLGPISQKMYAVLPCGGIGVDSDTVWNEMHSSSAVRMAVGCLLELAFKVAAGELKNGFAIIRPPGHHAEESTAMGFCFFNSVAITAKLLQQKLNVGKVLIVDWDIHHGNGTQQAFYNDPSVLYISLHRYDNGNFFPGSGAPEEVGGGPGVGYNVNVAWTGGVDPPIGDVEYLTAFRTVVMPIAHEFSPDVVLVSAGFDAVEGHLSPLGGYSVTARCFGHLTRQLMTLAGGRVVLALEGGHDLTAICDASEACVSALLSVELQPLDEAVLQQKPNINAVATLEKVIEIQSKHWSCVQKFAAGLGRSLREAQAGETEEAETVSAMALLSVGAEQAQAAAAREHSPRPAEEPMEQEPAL

Histone deacetylase 4 = Histone deacetylase 4 (Homo sapiens, UniProt P56524); test: Inhibition of recombinant human HDAC4 using Ac-LGK(TFA)-AMC as substrate pre-incubated for 15 mins followed by substrate addition and measured after 60 mins by fluorescence based assay
Histone deacetylase 4, sequence (P56524 whole entry): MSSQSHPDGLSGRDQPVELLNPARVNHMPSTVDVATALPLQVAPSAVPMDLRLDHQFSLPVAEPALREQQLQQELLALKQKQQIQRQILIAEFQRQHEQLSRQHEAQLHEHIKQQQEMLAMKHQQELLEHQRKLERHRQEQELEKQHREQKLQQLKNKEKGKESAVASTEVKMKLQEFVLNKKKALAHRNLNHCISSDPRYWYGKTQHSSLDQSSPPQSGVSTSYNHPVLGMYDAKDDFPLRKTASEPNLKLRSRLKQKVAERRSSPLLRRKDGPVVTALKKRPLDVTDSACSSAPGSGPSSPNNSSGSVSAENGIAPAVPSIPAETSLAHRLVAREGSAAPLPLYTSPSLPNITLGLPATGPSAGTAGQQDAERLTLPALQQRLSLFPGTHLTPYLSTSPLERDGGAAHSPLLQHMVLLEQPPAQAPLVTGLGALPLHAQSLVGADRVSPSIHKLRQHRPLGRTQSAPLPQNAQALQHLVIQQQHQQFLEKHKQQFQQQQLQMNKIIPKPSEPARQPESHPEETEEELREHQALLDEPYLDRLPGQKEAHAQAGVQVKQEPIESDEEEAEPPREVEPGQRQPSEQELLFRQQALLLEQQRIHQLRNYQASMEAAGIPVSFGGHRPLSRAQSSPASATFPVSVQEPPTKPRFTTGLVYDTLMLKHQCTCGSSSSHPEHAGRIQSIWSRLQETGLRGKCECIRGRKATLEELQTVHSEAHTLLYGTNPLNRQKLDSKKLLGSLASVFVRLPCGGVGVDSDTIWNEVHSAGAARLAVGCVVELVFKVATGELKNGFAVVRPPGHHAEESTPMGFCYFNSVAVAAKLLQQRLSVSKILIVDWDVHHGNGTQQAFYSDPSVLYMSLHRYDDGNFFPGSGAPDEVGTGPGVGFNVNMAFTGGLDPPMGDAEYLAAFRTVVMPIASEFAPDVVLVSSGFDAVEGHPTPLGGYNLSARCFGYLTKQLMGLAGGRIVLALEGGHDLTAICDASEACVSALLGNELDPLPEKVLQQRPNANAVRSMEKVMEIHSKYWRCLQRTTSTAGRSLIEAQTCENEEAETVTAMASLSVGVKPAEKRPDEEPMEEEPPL

[5] = molecular target: T1, Class 1 histone deacetylase; test: Inhibition of Class 1 histone deacetylase in human THP-1 cells using Ac-LGK(Ac)-AMC as substrate incubated for 3 hrs followed by 50 uM SAHA addition and measured after 1 hr by fluorescence based assay; assay type: cell-based
Histone deacetylase 8 = molecular target: T3, Histone deacetylase 8 (Homo sapiens, UniProt Q9BY41); test: Inhibition of recombinant human HDAC8 using Ac-LGK(TFA)-AMC as substrate preincubated for 30 mins followed by substrate addition and measured after 90 mins by fluorescence based assay
T3 sequence (Q9BY41 whole entry): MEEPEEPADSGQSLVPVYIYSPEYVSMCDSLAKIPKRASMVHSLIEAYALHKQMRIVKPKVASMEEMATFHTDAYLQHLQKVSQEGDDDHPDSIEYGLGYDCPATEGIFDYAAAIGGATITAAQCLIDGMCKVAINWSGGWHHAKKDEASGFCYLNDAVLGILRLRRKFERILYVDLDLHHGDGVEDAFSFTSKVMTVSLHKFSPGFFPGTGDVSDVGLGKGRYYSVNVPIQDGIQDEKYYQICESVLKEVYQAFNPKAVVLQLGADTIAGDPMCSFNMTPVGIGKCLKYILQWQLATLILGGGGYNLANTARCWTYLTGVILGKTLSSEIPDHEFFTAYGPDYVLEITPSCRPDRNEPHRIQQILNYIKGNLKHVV

Macrophage [6] = test: Antiinflammatory activity in human monocytes-derived macrophages assessed as inhibition of LPS-induced GM-CSF secretion at 30 uM pretreated for 1 hr followed by LPS stimulation and measured after 24 hrs by homogenous time-resolved fluorescence assay; assay type: functional, cell-based; conditions: time 25.0 hrs
Macrophage [7] = test: Antiinflammatory activity in human monocytes-derived macrophages assessed as inhibition of LPS-induced IL-12p40 secretion at 30 uM pretreated for 1 hr followed by LPS stimulation and measured after 24 hrs by homogenous time-resolved fluorescence assay; assay type: functional, cell-based; conditions: time 25.0 hrs
Macrophage [8] = test: Antiinflammatory activity in human monocytes-derived macrophages assessed as inhibition of LPS-induced CCL2 secretion at 30 uM pretreated for 1 hr followed by LPS stimulation and measured after 24 hrs by homogenous time-resolved fluorescence assay; assay type: functional, cell-based; conditions: time 25.0 hrs
[9] = Inhibition of Class 2a histone deacetylase in human THP-1 cells using Ac-LGK(TFA)-AMC as substrate incubated for 3 hrs followed by 50 uM SAHA addition and measured after 1 hr by fluorescence based assay; assay type: cell-based
Histone deacetylase 9 = Histone deacetylase 9 (Homo sapiens, UniProt Q9UKV0); test: Inhibition of recombinant human HDAC9 using Ac-LGK(TFA)-AMC as substrate preincubated for 15 mins followed by substrate addition and measured after 60 mins by fluorescence based assay
Histone deacetylase 9, sequence (Q9UKV0 whole entry): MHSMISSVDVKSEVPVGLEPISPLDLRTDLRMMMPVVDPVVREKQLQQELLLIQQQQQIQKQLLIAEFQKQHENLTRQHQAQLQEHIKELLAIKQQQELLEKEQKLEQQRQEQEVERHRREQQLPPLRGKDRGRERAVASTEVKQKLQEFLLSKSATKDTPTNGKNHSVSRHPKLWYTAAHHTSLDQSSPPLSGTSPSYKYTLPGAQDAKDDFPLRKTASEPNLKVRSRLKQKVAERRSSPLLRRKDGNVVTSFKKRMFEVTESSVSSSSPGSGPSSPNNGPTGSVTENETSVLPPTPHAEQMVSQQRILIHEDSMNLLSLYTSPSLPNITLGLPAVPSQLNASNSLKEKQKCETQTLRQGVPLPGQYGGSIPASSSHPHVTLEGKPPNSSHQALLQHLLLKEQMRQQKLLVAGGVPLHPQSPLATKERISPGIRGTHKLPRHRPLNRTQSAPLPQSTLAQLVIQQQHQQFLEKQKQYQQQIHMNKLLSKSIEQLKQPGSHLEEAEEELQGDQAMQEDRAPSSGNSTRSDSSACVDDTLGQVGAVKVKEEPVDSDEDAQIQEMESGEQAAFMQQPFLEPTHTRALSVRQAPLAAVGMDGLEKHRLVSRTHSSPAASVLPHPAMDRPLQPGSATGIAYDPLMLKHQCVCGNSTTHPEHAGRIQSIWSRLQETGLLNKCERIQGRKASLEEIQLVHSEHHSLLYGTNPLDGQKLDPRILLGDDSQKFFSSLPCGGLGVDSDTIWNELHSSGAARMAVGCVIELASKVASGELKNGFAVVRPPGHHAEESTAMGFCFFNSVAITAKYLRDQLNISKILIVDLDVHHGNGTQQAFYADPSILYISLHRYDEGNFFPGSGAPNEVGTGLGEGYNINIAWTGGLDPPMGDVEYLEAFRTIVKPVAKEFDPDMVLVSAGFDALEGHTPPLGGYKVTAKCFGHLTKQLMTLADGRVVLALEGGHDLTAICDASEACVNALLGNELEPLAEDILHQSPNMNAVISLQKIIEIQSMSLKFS

Macrophage [10] = test: Antiinflammatory activity in human monocytes-derived macrophages assessed as inhibition of LPS-induced IL-1alpha secretion at 30 uM pretreated for 1 hr followed by LPS stimulation and measured after 24 hrs by homogenous time-resolved fluorescence assay; assay type: functional, cell-based; conditions: time 25.0 hrs
[11] = Metabolic stability in Sprague-Dawley rat liver microsomes assessed as half life at 20 uM preincubated for 5 mins followed by NADPH addition and measured after 60 mins by LCMS analysis; assay type: ADME, Microsome; conditions: time 65 min
[12] = molecular target: T4, Protein deacetylase HDAC6 (Homo sapiens, UniProt Q9UBN7); test: Inhibition of recombinant human HDAC6 using Boc-Lys(Ac)-AMC as substrate pre-incubated for 15 mins followed by substrate addition and measured after 60 mins by fluorescence based assay
T4 sequence (Q9UBN7 whole entry): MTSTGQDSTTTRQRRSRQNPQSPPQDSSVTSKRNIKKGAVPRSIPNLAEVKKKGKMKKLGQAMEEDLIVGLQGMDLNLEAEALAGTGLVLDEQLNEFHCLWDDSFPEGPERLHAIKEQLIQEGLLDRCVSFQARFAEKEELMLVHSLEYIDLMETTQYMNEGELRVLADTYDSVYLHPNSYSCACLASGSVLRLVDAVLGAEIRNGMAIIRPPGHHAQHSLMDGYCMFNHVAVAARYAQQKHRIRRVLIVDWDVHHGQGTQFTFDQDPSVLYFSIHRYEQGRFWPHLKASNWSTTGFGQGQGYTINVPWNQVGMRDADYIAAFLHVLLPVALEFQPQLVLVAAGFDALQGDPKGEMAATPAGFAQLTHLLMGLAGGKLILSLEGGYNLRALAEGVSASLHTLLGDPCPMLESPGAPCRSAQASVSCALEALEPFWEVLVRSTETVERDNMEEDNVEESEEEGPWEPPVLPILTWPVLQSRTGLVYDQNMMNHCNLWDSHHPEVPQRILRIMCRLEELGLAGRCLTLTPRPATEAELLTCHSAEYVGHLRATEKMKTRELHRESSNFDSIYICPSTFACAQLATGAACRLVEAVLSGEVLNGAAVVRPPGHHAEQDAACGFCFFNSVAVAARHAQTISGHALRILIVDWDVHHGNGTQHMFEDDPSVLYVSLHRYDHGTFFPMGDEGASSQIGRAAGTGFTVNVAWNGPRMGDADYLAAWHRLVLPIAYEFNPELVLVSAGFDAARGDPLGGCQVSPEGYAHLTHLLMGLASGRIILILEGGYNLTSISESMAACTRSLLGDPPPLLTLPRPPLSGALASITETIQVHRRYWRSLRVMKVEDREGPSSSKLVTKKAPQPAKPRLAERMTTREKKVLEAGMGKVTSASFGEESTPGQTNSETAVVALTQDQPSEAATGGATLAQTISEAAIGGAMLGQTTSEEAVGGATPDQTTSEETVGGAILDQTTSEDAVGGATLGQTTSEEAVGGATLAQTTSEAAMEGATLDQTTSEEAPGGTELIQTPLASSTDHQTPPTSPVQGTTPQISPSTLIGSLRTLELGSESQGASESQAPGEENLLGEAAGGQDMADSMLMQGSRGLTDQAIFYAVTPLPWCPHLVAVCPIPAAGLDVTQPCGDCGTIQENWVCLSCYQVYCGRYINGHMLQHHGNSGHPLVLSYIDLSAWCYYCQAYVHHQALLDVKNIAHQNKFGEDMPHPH

[13] = Solubility of compound in PEG400 in PBS at 10 mg/ml; assay type: physicochemical

Histone deacetylase 1, sequence (Q13547 whole entry): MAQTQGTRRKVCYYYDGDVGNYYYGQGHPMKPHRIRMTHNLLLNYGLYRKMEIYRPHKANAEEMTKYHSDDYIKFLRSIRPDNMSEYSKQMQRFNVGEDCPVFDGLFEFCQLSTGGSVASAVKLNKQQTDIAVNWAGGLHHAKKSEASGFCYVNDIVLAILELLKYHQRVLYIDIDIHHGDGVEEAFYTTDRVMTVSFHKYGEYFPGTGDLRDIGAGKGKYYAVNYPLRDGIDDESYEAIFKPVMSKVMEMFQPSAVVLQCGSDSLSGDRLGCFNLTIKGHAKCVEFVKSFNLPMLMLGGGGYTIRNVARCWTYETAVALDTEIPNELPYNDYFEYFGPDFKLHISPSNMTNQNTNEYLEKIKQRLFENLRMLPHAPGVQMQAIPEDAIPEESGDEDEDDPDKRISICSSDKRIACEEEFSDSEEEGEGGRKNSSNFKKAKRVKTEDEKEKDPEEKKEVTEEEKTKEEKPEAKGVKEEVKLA

SMILES: Cc1ccc(C(=O)NO)c(-c2ccccc2)c1
IC50 (Histone deacetylase 1): > 100000 nM

SMILES: CC(C)[C@H](C(=O)Nc1ccc(C(=O)NO)cc1)c1ccccc1
inhibition [1]: Active

SMILES: O=C(NO)c1ccc(CN2C(=O)c3cccnc3C2=O)cc1-c1ccccc1
IC50 (Histone deacetylase 1): > 100000 nM

SMILES: O=C(NO)c1ccc(CN2C(=O)c3ccncc3C2=O)cc1-c1ccccc1
IC50 (Histone deacetylase 1): > 100000 nM

SMILES: O=C(NO)c1ccc(CN2C(=O)c3ccccc3S2(=O)=O)cc1-c1ccccc1
Activity (Macrophage [3]): Active
Activity (Macrophage [4]): Active
inhibition [1]: inactive
IC50 (Histone deacetylase 4): 49 nM
IC50 [5]: > 30000 nM
IC50 [12]: 5300 nM
IC50 (Histone deacetylase 8): 71 nM
Activity (Macrophage [6]): Active
half-life at 5 µM [2]: 3.83 h
Activity (Macrophage [7]): inactive
Activity (Macrophage [8]): Active
IC50 [9]: 300 nM
solubility [13]: Soluble
IC50 (Histone deacetylase 9): 38 nM
Activity (Macrophage [10]): Active

SMILES: O=C(NO)c1ccc(CN2C(=O)c3cccc(F)c3C2=O)cc1-c1ccccc1
IC50 [5]: > 30000 nM
IC50 [12]: 4200 nM
IC50 (Histone deacetylase 8): 88 nM
half-life at 5 µM [2]: 8.08 h
IC50 [9]: 300 nM
solubility [13]: Insoluble
IC50 (Histone deacetylase 9): 46 nM

More lines, main results first:

IC50 (Histone deacetylase 7): 1400 nM
IC50 (Histone deacetylase 1): 1400 nM
SMILES: O=C(O)c1cccc(C(CCCCN2C(=O)c3ccccc3C2=O)C(=O)NO)c1 (stereo not drawn)

half-life at 5 µM [2]: 0.533 h
IC50 (Histone deacetylase 1): 26000 nM
SMILES: O=C(NO)C(CCCCN1C(=O)c2ccccc2C1=O)c1ccccc1 (stereo not drawn)

inhibition [1]: inactive
IC50 (Histone deacetylase 5): 216 nM
IC50 (Histone deacetylase 4): 354 nM
IC50 [5]: > 30000 nM
IC50 (Histone deacetylase 8): 2100 nM
IC50 (Histone deacetylase 1): 45000 nM
IC50 [9]: 3000 nM
IC50 (Histone deacetylase 9): 16 nM
half-life at 20 µM [11]: 0.767 h
SMILES: CC(C)(CNC(=O)c1cccc(-c2noc(C(F)(F)F)n2)c1)c1coc(-c2ccccc2)n1
Activity (Macrophage [3]): Active
Activity (Macrophage [4]): Active
Activity (Macrophage [6]): Active
Activity (Macrophage [7]): inactive
Activity (Macrophage [8]): Active
Activity (Macrophage [10]): Active

IC50 (Histone deacetylase 1): 19000 nM
SMILES: O=C(NO)[C@@H](CCCCN1C(=O)c2ccccc2C1=O)c1ccccc1

IC50 (Histone deacetylase 7): 1900 nM
IC50 (Histone deacetylase 1): > 10000 nM
SMILES: O=C(NCCCCC(C(=O)NO)c1ccccc1)c1ccccc1O (stereo not drawn)

From ChEMBL document CHEMBL4732198, “HDAC7 Inhibition by Phenacetyl and Phenylbenzoyl Hydroxamates” (J Med Chem, 2021)
